Test results taken from US20040224898A1, “Compositions and methods for promoting lipid mobilization in humans” (priority 2002, published 2004).

Key:
Format in all cases: cell-based
[1] = test system: human adipocytes; assay: Release of tritium label from radiolabeled palmitate (lipid mobilizing activity); conditions: for Ability to mobilize lipids in adipocytes: conclusion of Example 1, murine adipocytes
Procedure: Lipid mobilizing activity was assessed by assaying release of tritium label from radiolabeled palmitate. This assay was performed by maintaining human pre-adipocytes in Adipocyte Growth Medium (AGM), which is Dulbecco's Modified Eagle's Medium (DMEM) mixed 1:1 by volume with Ham's F-10 medium. Ham's F-10 medium comprises 15 millimolar HEPES buffer adjusted to pH 7.4 and supplemented with biotin, pantothenate, human recombinant insulin, dexamethasone, fungicide, bactericide, and 3% (v/v) fetal bovine serum). Pre-adipocytes differentiated to become mature adipocytes by three weeks of maintenance in AGM. On the day prior to assay, the adipocytes were washed and incubated overnight in Krebs-Ringers buffer comprising 0.1% fatty acid-free bovine serum albumin (BSA) and comprising 1 microCurie per milliliter of tritiated (9,10-^3H) palmitate. The following day, the medium was removed, and the cells were washed three times […]. Isoproterenol (0 to 5×10^−8 molar), Schistocera gregaria AKH II (0 to 5×10^−5 molar), or Krebs-Ringer buffer (with 0.1% fatty acid-free BSA) containing neither of these was added to the cell suspension in a volume of 150 microliters. The suspensions were incubated for 4 hours at 37° C., and then 100 microliters of each sample was subjected to scintillation counting to detect released label in the supernatant. The total amount of label incorporated was determined for each well by solubilizing the cells using 1% sodium dodecyl sulfate and subjecting the entire contents of the well to scintillation counting. Fractional release of label was calculated by dividing the amount of label detected in cell supernatant by the total amount of label detected in the supernatant and in the cells remaining in the well, and percentage release was calculated by multiplying fractional release by 100.
A similar study was done using the same methods, except that cockroach hypertrehalosemic factor (0 to 5×10^−5 molar) was used in place of S. gregaria AKH II.
A similar tritium label release experiment performed using Heliothis zea AKH II and Locusta migratoria, except that a two-hour incubation period was used in place of a 4 hour incubation period.

[2] = test system: human adipocytes; assay: Glycerol release assay; conditions: for Ability to promote lipid mobilization in human adipocytes: conclusion of Example 2
Procedure: (§1) Human pre-adipocytes were isolated by liposuction and maintained in AGM for three weeks in order to permit the pre-adipocytes to differentiate to become mature adipocytes. AGM was removed, and adipocytes were incubated in Krebs-Ringers buffer comprising 0.1% fatty acid-free BSA at 37° C. for five hours in the presence of selected concentrations (10^−9 to 10^−5 molar) of one of Schistocera gregaria AKH II, cockroach hypertrehalosemic factor (obtained from Sigma Chemical Co, St. Louis, Mo., catalog number P0175), and Locusta migratoria AKH I (obtained from American Peptide Co., Sunnyvale, Calif., catalog number 60-9-18). Glycerol released from the adipocytes was assayed using a commercially available kit (GPO-trinder assay kit available form Sigma Chemical Company, St. Louis, Mo.).
A similar experiment was performed, in which glycerol release from adipocytes was assessed in the presence of the Locusta migratoria AKH I or the cockroach hypertrehalosemic factor or in the presence of isoproterenol.

[3] = test system: human adipocytes; assay: Effect of propanolol on agent-induced glycerol release
Procedure: as §1
Glycerol release assays were performed as described in Example 2, except that the assays were performed using single selected concentrations of one of cockroach hypertrehalosemic factor, Locusta migratoria AKH I, and isoproterenol and multiple selected concentrations of propanolol.

[4] = agent 1 × 10^−8 molar, 4 hours, 37° C., Table 6 experiment
[5] = agent 1 × 10^−9 molar, 4 hours, 37° C., Table 6 experiment
[6] = agent 1 × 10^−10 molar, 4 hours, 37° C., Table 6 experiment
[7] = agent 1 × 10^−6, Table 9 experiment
[8] = agent 1 × 10^−7, Table 9 experiment
[9] = agent 1 × 10^−8, Table 9 experiment
[10] = agent 1 × 10^−5, Table 9 experiment
[11] = agent 1 × 10^−5 molar, five hours, 37° C., Table 8 experiment
[12] = agent 1 × 10^−6 molar, five hours, 37° C., Table 8 experiment
[13] = agent 1 × 10^−7 molar, five hours, 37° C., Table 8 experiment
[14] = agent 1 × 10^−8 molar, five hours, 37° C., Table 8 experiment
[15] = agent 1 × 10^−9 molar, five hours, 37° C., Table 8 experiment
[16] = agent 10 micromolar, propanolol 0 molar
[17] = agent 10 micromolar, propanolol 1 × 10^−5 molar
[18] = agent 10 micromolar, propanolol 1 × 10^−6 molar
[19] = agent 10 micromolar, propanolol 1 × 10^−7 molar

| Compound | % Tritium Label Release with Agent [1, 4] [%] | % Tritium Label Release with Agent [1, 5] [%] | % Tritium Label Release with Agent [1, 6] [%] | Glycerol Release with Agent (medium concentration in millimolar) [2, 7] [millimolar] | Glycerol Release with Agent (medium concentration in millimolar) [2, 8] [millimolar] | Glycerol Release with Agent (medium concentration in millimolar) [2, 9] [millimolar] | Ability to mobilize lipids in adipocytes [1] | Glycerol Release with Agent (medium concentration in millimolar) [2, 10] [millimolar] | Glycerol Release with Agent (medium concentration in millimolar) [2, 11] [millimolar] | Glycerol Release with Agent (medium concentration in millimolar) [2, 12] [millimolar] | Glycerol Release with Agent (medium concentration in millimolar) [2, 13] [millimolar] | Glycerol Release with Agent (medium concentration in millimolar) [2, 14] [millimolar] | Glycerol Release with Agent (medium concentration in millimolar) [2, 15] [millimolar] | Ability to promote lipid mobilization in human adipocytes [2] | Glycerol Release with Agent (medium concentration in millimolar) [3, 16] [millimolar] | Glycerol Release with Agent (medium concentration in millimolar) [3, 17] [millimolar] | Glycerol Release with Agent (medium concentration in millimolar) [3, 18] [millimolar] | Glycerol Release with Agent (medium concentration in millimolar) [3, 19] [millimolar] | also measured |
| --- | --- | --- | --- | --- | --- | --- | --- | --- | --- | --- | --- | --- | --- | --- | --- | --- | --- | --- | --- |
| CC(C)NCC(O)c1ccc(O)c(O)c1 (centres unmarked) [Isoproterenol, isoproterenol, reference compound] | 9.8 | 6.67 | 8.97 | 0.5172 ± 0.1659 | 0.2169 ± 0.0316 | 0.1325 ± 0.0244 |  |  |  |  |  |  |  |  |  |  |  |  | % Tritium Label Release with Agent ([1]; agent 1 × 10^−8 molar, 4 hours, 37° C., Table 5 experiment): 15.58%; % Tritium Label Release with Agent ([1]; agent 1 × 10^−9 molar, 4 hours, 37° C., Table 5 experiment): 12.67%; % Tritium Label Release with Agent ([1]; agent 1 × 10^−10 molar, 4 hours, 37° C., Table 5 experiment): 11.11%; % Tritium Label Release with Agent ([1]; agent 1 × 10^−11 molar, 4 hours, 37° C., Table 5 experiment): 9.9%; % Tritium Label Release with Agent ([1]; agent 1 × 10^−11 molar, 4 hours, 37° C., Table 6 experiment): 5.87%; % Tritium Label Release with Agent ([1]; agent 5 × 10^−8 molar, 4 hours, 37° C., Table 5 experiment): 16.99%; % Tritium Label Release with Agent ([1]; agent 5 × 10^−8 molar, 4 hours, 37° C., Table 6 experiment): 10.8%; % Tritium Label Release with Agent ([1]; agent 5 × 10^−9 molar, 4 hours, 37° C., Table 5 experiment): 14.14%; % Tritium Label Release with Agent ([1]; agent 5 × 10^−9 molar, 4 hours, 37° C., Table 6 experiment): 5.93%; % Tritium Label Release with Agent ([1]; agent 5 × 10^−10 molar, 4 hours, 37° C., Table 5 experiment): 11.21%; % Tritium Label Release with Agent ([1]; agent 5 × 10^−10 molar, 4 hours, 37° C., Table 6 experiment): 7.58%; % Tritium Label Release with Agent ([1]; agent 5 × 10^−11 molar, 4 hours, 37° C., Table 5 experiment): 10.62%; % Tritium Label Release with Agent ([1]; agent 5 × 10^−11 molar, 4 hours, 37° C., Table 6 experiment): 6.96%; % Tritium Label Release with Agent ([1]; agent 5 × 10^−12 molar, 4 hours, 37° C., Table 5 experiment): 10.12%; % Tritium Label Release with Agent ([1]; agent 5 × 10^−12 molar, 4 hours, 37° C., Table 6 experiment): 6.81%; Glycerol Release with Agent (medium concentration in millimolar) ([2]; agent 1 × 10^−9, Table 9 experiment): 0.0381 ± 0.011 millimolar; Glycerol Release with Agent (medium concentration in millimolar) ([3]; agent 1 micromolar, propanolol 0 molar): 0.5172 millimolar; Glycerol Release with Agent (medium concentration in millimolar) ([3]; agent 1 micromolar, propanolol 1 × 10^−5 molar): 0.2305 millimolar; Glycerol Release with Agent (medium concentration in millimolar) ([3]; agent 1 micromolar, propanolol 1 × 10^−6 molar): 0.411 millimolar; Glycerol Release with Agent (medium concentration in millimolar) ([3]; agent 1 micromolar, propanolol 1 × 10^−7 molar): 0.6533 millimolar |
| ELNFTPNWGT (listed as Schistocerca gregaria) [Locusta migratoria AKH I, insect adipokinetic hormone, American Peptide Co. catalog number 60-9-18] |  |  |  | 0.0427 ± 0.0129 | 0.0336 ± 0.0082 | 0.0209 ± 0.0110 | able to mobilize lipids | 0.0871 ± 0.0134 | 0.691 | 0.467 | 0.490 | 0.476 | 0.611 | able to promote lipid mobilization | 0.0871 ± 0.0134 | 0.2214 ± 0.0287 | 0.2169 ± 0.0294 | 0.2486 ± 0.0249 | % Tritium Label Release with Agent ([1]; agent 1 × 10^−5 molar, two-hour incubation, Table 7): 10.8%; % Tritium Label Release with Agent ([1]; agent 1 × 10^−6 molar, two-hour incubation, Table 7): 7.52%; % Tritium Label Release with Agent ([1]; agent 1 × 10^−7 molar, two-hour incubation, Table 7): 6.34%; % Tritium Label Release with Agent ([1]; agent 1 × 10^−8 molar, two-hour incubation, Table 7): 7.00%; % Tritium Label Release with Agent ([1]; agent 1 × 10^−9 molar, two-hour incubation, Table 7): 7.44%; % Tritium Label Release with Agent ([1]; agent 1 × 10^−10 molar, two-hour incubation, Table 7): 7.62% |
| EVNFSPGWGT (listed as Gromphadorhina portentosa) [cockroach hypertrehalosemic factor, insect AKH family peptide, Sigma Chemical Co. catalog number P0175] | 7.24 | 6.88 | 7.21 | 0.1216 ± 0.0103 | 0.0944 ± 0.00166 | 0.0817 ± 0.0113 | able to mobilize lipids | 0.1515 ± 0.0155 | 1.124 | 0.555 | 0.527 | 0.451 | 0.603 | able to promote lipid mobilization | 0.1515 ± 0.0155 | 0.2033 ± 0.0134 | 0.1370 ± 0.0170 | 0.1161 ± 0.0232 | % Tritium Label Release with Agent ([1]; agent 1 × 10^−5 molar, 4 hours, 37° C., Table 6 experiment): 9.08%; % Tritium Label Release with Agent ([1]; agent 1 × 10^−6 molar, 4 hours, 37° C., Table 6 experiment): 8.77%; % Tritium Label Release with Agent ([1]; agent 1 × 10^−7 molar, 4 hours, 37° C., Table 6 experiment): 7.17%; % Tritium Label Release with Agent ([1]; agent 5 × 10^−5 molar, 4 hours, 37° C., Table 6 experiment): 9.7%; % Tritium Label Release with Agent ([1]; agent 5 × 10^−6 molar, 4 hours, 37° C., Table 6 experiment): 9.36%; % Tritium Label Release with Agent ([1]; agent 5 × 10^−7 molar, 4 hours, 37° C., Table 6 experiment): 8.08% |
